Source: paper PMC10094450, “Investigation of the Entry Pathway and Molecular Nature of σ1 Receptor Ligands” (International Journal of Molecular Sciences, 2023)
Like-named read-outs stand apart in the source and are kept apart here.

Columns and labels:
Hsσ1-R [1] = target: T1, Hsσ1-R (Homo sapiens, UniProt Q99720); experiment: Fluorescence titration (intrinsic tryptophan fluorescence quenching) of purified Hsσ1-R
Excerpt: Since the intrinsic fluorescence of tryptophan residues within a given protein depends on the tryptophan’s environment, when a molecule binds near tryptophan residues it can lead to fluorescence intensity quenching (Figure 6). Thanks to the fact that two of the tryptophan residues (i.e., Trp89 and Trp164) are part of the previously identified Hsσ1-R binding site (Supplementary Figure S11), we were able to perform fluorescence titration to measure the affinity of selected molecules for this receptor.
Binding of ligands to Hsσ1-R was followed by measuring the intrinsic protein fluorescence on a Fluoromax-4 spectrofluorometer (Horiba-Jobin Yvon). Fluorescence spectra were collected at 25 °C using a 1 cm path length cuvette, under continuous stirring. The excitation wavelength was 280 nm, and emission was recorded between 300 and 450 nm. The protein was used at 100 nM concentration in a buffer containing 0.01% LMNG, 0.001% CHS, 100 mM NaCl and 20 mM HEPES pH 7.5. The ligands were added to the protein solution, starting from a 10 mM stock solution in 100% DMSO, at a final concentration within the range 0.01 to 100 μM. The measurements were performed after each addition, following 3 min of incubation.
This equation describes a two-site model in which the binding sites are independent of each other, and at each site the interaction is non-cooperative [71]:(2) ΔF=ΔFmax1×Ltot/KD1+Ltot+ΔFmax2×Ltot/KD2+Ltot where: ΔF is the fluorescence quenching due to ligand binding; ΔFmax is the maximum fluorescence quenching possible in the experiment; [L]tot is the total concentration of the ligand; and KD1 and KD2 are the dissociation constants for the two sites.

Hsσ1-R [2] = target: T1, Hsσ1-R; design: FLAG; made in house; host or cells: Sf9 insect cells (baculovirus, pFastbac1); method as in PMID 33525510; conditions: purified σ1R immobilized on a matrix; read-out: KD by SPR; cited from earlier work
[3] = read-out: KD2, low-affinity site, two-site model, 25 °C

T1 sequence (Q99720 whole entry): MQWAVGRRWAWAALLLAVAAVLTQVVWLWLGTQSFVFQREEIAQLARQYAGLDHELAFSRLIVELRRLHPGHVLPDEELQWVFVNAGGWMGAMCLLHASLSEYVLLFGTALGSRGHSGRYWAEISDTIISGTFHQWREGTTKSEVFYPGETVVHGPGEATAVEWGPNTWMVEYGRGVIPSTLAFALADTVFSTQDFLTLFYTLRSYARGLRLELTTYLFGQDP

Structure (SMILES) | Kd (Hsσ1-R [1]; read-out: KD1, high-affinity site, two-site model, 25 °C) [µM] | Kd (Hsσ1-R [1]; [3]) [µM] | KD for the high affinity site, fold better than that of pridopidine (Hsσ1-R [1]; versus pridopidine, same assay) [fold] | Kd (Hsσ1-R [1]) [µM] | Kd (Hsσ1-R [2]) [µM]
CC(=O)C1=CC[C@H]2[C@@H]3CCC4=CC(=O)CC[C@]4(C)[C@H]3CC[C@]12C [16,17-didehydroprogesterone] | 0.01 ± 0.004 | 15.8 ± 4.03 | 25 | – | –
COc1cc(C(C)=O)ccc1OCCCN1CCC(c2noc3cc(F)ccc23)CC1 [Iloperidone] | – | 33.1 ± 14.4 | – | 0.019 ± 0.015 | 5
